Test system: PDE4 activity (cytosol from human neutrophils)
Test: Inhibition of PDE4 activity
Format: biochemical
Parameters: unit not given here
Details: 0.5 μM cAMP, Motapizone 1 μM included to suppress PDE3
Description: Method for Measuring Inhibition of PDE4 Activity
PDE4 activity was determined as described by Thompson et al. (Adv Cycl Nucl Res 10: 69–92, 1979) with some modifications (Bauer and Schwabe, Naunyn-Schmiedeberg's Arch Pharmacol 311: 193–198, 1980). At a final assay volume of 200 μl (96well microliter plates) the assay mixture contained 20 mM Tris (pH 7.4), 5 mM MgCl2, 0.5 μM cAMP, [^3H]CAMP (about 30,000 cpm/assay), the test compound and an aliquot of cytosol from human neutrophils which mainly contains PDE4 activity as described by Schudt et al. (Naunyn-Schmiedeberg's Arch Pharmacol 344: 682–690, 1991); the PDE3-specific inhibitor Motapizone (1 μM) was included to suppress PDE3 activity originating from contaminating platelets. […]
After preincubation for 5 min at 37° C., the reaction was started by the addition of substrate (cAMP) and the assays were incubated for further 15 min at 37° C. […] The columns were eluted with 2 ml of 30 mM ammonium formiate (pH 6.0) and the eluate was counted for radioactivity. Results were corrected for blank values (measured in the presence of denatured protein) which were below 5% of total radioactivity. […] The IC50-values for the compounds according to the invention for the inhibition of the PDE4 activity were determined from the concentration-inhibition curves by nonlinear-regression.

SMILES: COc1ccc(C2=NN(C3CCN(C(=O)CN4C(=O)CCC4=O)CC3)C(=O)[C@@H]3CC=CC[C@H]23)cc1OC [Example 1, 1-(2-{4-[(4aS,8aR)-4-(3,4-Dimethoxy-phenyl)-1-oxo-4a,5,8,8a-tetrahydro-yl]-piperidin-1-yl}-2-oxo-ethyl)-pyrrolidine-2,5-dione]
- Inhibition of PDE4 activity, −logIC50: 10.66

Source: patent US7220746B2, “Pyrrolidinedione substituted piperidine-phthalazones as PDE4 inhibitors” (Altana Pharma AG, priority 2002, dated 2007)
